The source of these data is ChEMBL document CHEMBL3727358, “Inhibitors of inducible form of 6-phosphofructose-2-kinase” (2014).

Bounds are passed on as bounds.

The target in this assay is 6-phosphofructo-2-kinase/fructose-2,6-bisphosphatase 3 (Homo sapiens, UniProt Q16875). Put plainly: Inhibition of iPFK2 (unknown origin) assessed as reduction in enzyme-mediated fructose-6-phosphate phosphorylation by measuring ATP consumption incubated for 3 hrs by luciferase-luciferin-coupled chemiluminescence assay.
Sequence of 6-phosphofructo-2-kinase/fructose-2,6-bisphosphatase 3 (Q16875 whole entry): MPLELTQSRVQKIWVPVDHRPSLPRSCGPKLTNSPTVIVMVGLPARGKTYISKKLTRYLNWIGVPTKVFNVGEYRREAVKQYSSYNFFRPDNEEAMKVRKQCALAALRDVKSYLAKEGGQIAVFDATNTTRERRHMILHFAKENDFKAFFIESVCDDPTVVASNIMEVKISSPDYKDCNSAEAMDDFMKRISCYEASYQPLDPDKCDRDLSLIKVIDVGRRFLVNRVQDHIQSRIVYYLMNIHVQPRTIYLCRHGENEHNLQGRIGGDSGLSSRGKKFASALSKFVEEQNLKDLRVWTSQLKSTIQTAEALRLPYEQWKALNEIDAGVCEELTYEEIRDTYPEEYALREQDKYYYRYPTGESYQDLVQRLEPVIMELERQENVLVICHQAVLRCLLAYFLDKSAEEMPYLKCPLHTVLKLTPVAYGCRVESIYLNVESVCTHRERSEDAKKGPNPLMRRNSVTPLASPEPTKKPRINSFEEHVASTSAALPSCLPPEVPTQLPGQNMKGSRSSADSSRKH
The IC50 is the concentration needed to halve the response being measured. As for `COc1cccc([C@H](C)Nc2cc(-c3ccc4ncoc4c3)nc(C)n2)c1`, the IC50 was > 1000 nM.

Take `COc1cccc([C@H](C)Nc2cc(-c3ccc4ncn(C)c4c3)nc(C)n2)c1`: the IC50 is > 1000 nM.

`COc1cccc(-c2cc(NC3CCCc4ccccc43)nc(C)n2)c1` (stereo not given): the IC50 was > 1000 nM.

With `COCC(C)Nc1cc(-c2ccc3ncsc3c2)nc(C)n1` (stereo not given), the half-inhibitory concentration (IC50) was > 1000 nM.

For the compound `Cc1nc(N[C@@H]2CCCc3ccccc32)cc(-c2ccc3[nH]ncc3c2)n1`, the IC50 is > 1000 nM.

On to `Cc1nc(N[C@@H]2CCCc3ccccc32)cc(-c2ccc(F)cc2)n1`, for which the IC50 was determined as 500 nM.

For `COc1cccc(-c2cc(NC(C)c3cccc(S(=O)(=O)NCC(=O)O)c3)nc(C)n2)c1` (stereo not given), the IC50 was > 1000 nM.

On to `COc1cccc([C@H](C)Nc2cc(-c3cc(OC)c(OC)c(OC)c3)nc(C)n2)c1`, for which the half-inhibitory concentration (IC50) was > 1000 nM.

Regarding `CCOC(=O)Cc1coc2ccc(-c3cc(N[C@@H]4CCCc5ccccc54)nc(C)n3)cc12`, the 50% inhibitory concentration (IC50) is > 1000 nM.

Consider `Cc1nc(N[C@@H]2CCCc3ccccc32)cc(-c2cccc(Cl)c2)n1`, for which the IC50 came out at 500 nM.

As to `COc1cccc([C@H](C)Nc2cc(-c3ccccc3F)nc(C)n2)c1`, the IC50 was > 1000 nM.

With `Cc1nc(N[C@@H]2CCCc3ccccc32)cc(-c2cccc3cc[nH]c23)n1`, the half-inhibitory concentration (IC50) was > 1000 nM.

Take `Cc1nc(N[C@@H]2CCCc3ccccc32)cc(-c2cccc(C(N)=O)c2)n1`: the IC50 was > 1000 nM.

As to `CCC(C)Nc1cc(-c2ccc3ncsc3c2)nc(C)n1` (stereo not given), the IC50 is > 1000 nM.

Turning to `CCCCCNc1cc(-c2ccc3ncsc3c2)nc(C)n1`, the half-inhibitory concentration (IC50) was > 1000 nM.

As for `Cc1nc(N[C@@H]2CCCc3ccccc32)cc(-c2ccc(OC(F)(F)F)cc2)n1`, the IC50 is > 1000 nM.

`COc1cccc([C@@H](C)Nc2cc(-c3ccc4ncsc4c3)nc(C)n2)c1`: the IC50 is > 1000 nM.

For `Cc1nc(N[C@@H]2CCCc3ccccc32)cc(-c2cccc(OC(F)(F)F)c2)n1`, the IC50 is > 1000 nM.

In the case of `Cc1nc(N[C@@H]2CCCc3ccccc32)cc(-c2cccc3c2ccn3C)n1`, the half-inhibitory concentration (IC50) is > 1000 nM.

As for `COCc1cccc(-c2cc(N[C@@H]3CCCc4ccccc43)nc(C)n2)c1`, the IC50 is > 1000 nM.

Take `COc1cccc(-c2cc(NC(CCO)c3cccc(OC)c3)nc(C)n2)c1` (stereo not given): the IC50 is > 1000 nM.

With `Cc1nc(N[C@@H]2CCCc3ccccc32)cc(-c2cccc3[nH]ccc23)n1`, the IC50 is > 1000 nM.

Turning to `Cc1nc(NC(C)c2cccc(-c3cnn(C)c3)c2)cc(-c2ccc3c(c2)N(C)CCO3)n1` (stereo not given), the IC50 came to 500 nM.

In the case of `CCOC(=O)CC(Nc1cc(-c2cccc(OC)c2)nc(C)n1)c1cccc(OC)c1` (stereo not given), the IC50 is > 1000 nM.

Consider `COc1cccc([C@H](C)Nc2cc(-c3cc(OC)ccc3Cl)nc(C)n2)c1`, for which the 50% inhibitory concentration (IC50) is > 1000 nM.

Consider `Cc1nc(N[C@@H](C)c2cccc(-c3cccn3C)c2)cc(-c2ccc3ncsc3c2)n1`, for which the IC50 is > 1000 nM.

Regarding `Cc1nc(N[C@@H]2CCCc3ccccc32)cc(-c2ccc3c(c2)N(CCO)CC3)n1`, the concentration for half-maximal inhibition (IC50) is > 1000 nM.

Regarding `COc1cccc([C@H](C)Nc2cc(-c3cccc(N(C)C)c3)nc(C)n2)c1`, the 50% inhibitory concentration (IC50) was > 1000 nM.

In the case of `COc1cccc([C@H](C)Nc2cc(-c3ccc4cc[nH]c4c3)nc(C)n2)c1`, the half-maximal inhibitory concentration (IC50) is > 1000 nM.

Turning to `COc1cccc(-c2cc(NC(C)c3cccc(NCC(=O)O)c3)nc(C)n2)c1` (stereo not given), the IC50 was > 1000 nM.

In the case of `CNC(=O)c1cc(-c2cc(N[C@@H]3CCCc4ccccc43)nc(C)n2)ccc1Cl`, the IC50 is > 1000 nM.

Take `Cc1nc(N[C@@H]2CCCc3ccccc32)cc(-c2ccc(N(C)C)cc2)n1`: the concentration for half-maximal inhibition (IC50) was > 1000 nM.

`Cc1nc(N[C@@H](C)c2cccc(-c3cc[nH]n3)c2)cc(-c2ccc3ncsc3c2)n1`: the concentration for half-maximal inhibition (IC50) came out at 500 nM.

Take `Cc1nc(N[C@@H]2CCCc3ccccc32)cc(-c2ccc3nc[nH]c3c2)n1`: the IC50 is > 1000 nM.

For `CCc1ccc(-c2cc(NC(C)c3cccc(-c4cnn(C)c4)c3)nc(C)n2)cc1` (stereo not given), the 50% inhibitory concentration (IC50) is 500 nM.

With `CC(=O)N1CCOc2ccc(-c3cc(N[C@@H]4CCCc5ccccc54)nc(C)n3)cc21`, the 50% inhibitory concentration (IC50) is > 1000 nM.

As to `COc1cccc([C@H](C)Nc2cc(N[C@@H]3CCCc4ccccc43)nc(C)n2)c1`, the IC50 was > 1000 nM.

With `COc1cccc([C@H](C)Nc2cc(-c3ccc(F)cc3)nc(C)n2)c1`, the IC50 is > 1000 nM.

Regarding `COc1cccc([C@H](C)Nc2cc(-c3cccc4[nH]ccc34)nc(C)n2)c1`, the 50% inhibitory concentration (IC50) is > 1000 nM.

In the case of `Cc1nc(NC(C)c2cccc(OCC(=O)NCCN(C)C)c2)cc(-c2ccc3ncsc3c2)n1` (stereo not given), the IC50 came to 500 nM.

Regarding `Cc1nc(NC2CCOc3ccc([N+](=O)[O-])cc32)cc(-c2ccc3ncsc3c2)n1` (stereo not given), the IC50 is > 1000 nM.

In the case of `CCc1coc2ccc(-c3cc(NC(C)c4cccc(-c5cnn(C)c5)c4)nc(C)n3)cc12` (stereo not given), the IC50 is > 1000 nM.

`COC(=O)CNc1cccc(CNc2cc(-c3cccc(OC)c3)nc(C)n2)c1`: the concentration for half-maximal inhibition (IC50) was > 1000 nM.

Regarding `CNc1ccc(-c2cc(N[C@@H]3CCCc4ccccc43)nc(C)n2)cc1`, the half-maximal inhibitory concentration (IC50) is 500 nM.

As for `COc1cccc([C@H](C)Nc2cc(-c3ccc(N(C)C)cc3)nc(C)n2)c1`, the half-inhibitory concentration (IC50) was > 1000 nM.

For `Cc1nc(NCCc2ccccn2)cc(-c2ccc3ncsc3c2)n1`, the IC50 was > 1000 nM.

Regarding `CC(=O)Nc1ccc2c(c1)C(Nc1cc(-c3ccc4ncsc4c3)nc(C)n1)CCO2` (stereo not given), the IC50 is > 1000 nM.

On to `CCC(Nc1cc(-c2cccc(OC)c2)nc(C)n1)c1cccc(OC)c1` (stereo not given), for which the IC50 was > 1000 nM.

With `COc1cccc([C@H](C)Nc2cc(-c3cccc(Cl)c3)nc(C)n2)c1`, the IC50 was found to be 500 nM.

With `Cc1nc(NC(C)c2cccc(OCCCC(=O)N(C)C)c2)cc(-c2ccc3ncsc3c2)n1` (stereo not given), the IC50 was 500 nM.

On to `Cc1nc(NCCc2ccc(O)cc2)cc(-c2ccc3ncsc3c2)n1`, for which the half-inhibitory concentration (IC50) was > 1000 nM.

`COc1cccc([C@@H](C)Nc2cc(-c3ccc4occ(C)c4c3)nc(C)n2)c1`: the IC50 was > 1000 nM.

As to `Cc1nc(N[C@@H]2CCCc3ccccc32)cc(-c2cccc(N)c2)n1`, the IC50 is > 1000 nM.

On to `Cc1nc(NCCC(C)C)cc(-c2ccc3ncsc3c2)n1`, for which the half-maximal inhibitory concentration (IC50) was found to be 500 nM.

For `CCOC(=O)CCNC(=O)CC(Nc1cc(-c2cccc(OC)c2)nc(C)n1)c1cccc(OC)c1` (stereo not given), the half-inhibitory concentration (IC50) is > 1000 nM.

On to `COC(=O)CN1CCc2ccc(-c3cc(N[C@@H]4CCCc5ccccc54)nc(C)n3)cc21`, for which the IC50 was > 1000 nM.

For `Cc1nc(NC(C)c2cccc(N3CCOCC3)c2)cc(-c2ccc3ncsc3c2)n1` (stereo not given), the IC50 stood at 500 nM.

For the compound `CCCCCC(C)Nc1cc(-c2ccc3ncsc3c2)nc(C)n1` (stereo not given), the half-inhibitory concentration (IC50) was > 1000 nM.

Regarding `Cc1nc(N[C@@H]2CCCc3ccccc32)cc(-c2ccccc2F)n1`, the IC50 is > 1000 nM.

For `Cc1nc(NC(C)c2cccc(OCCn3cccc3)c2)cc(-c2ccc3ncsc3c2)n1` (stereo not given), the half-maximal inhibitory concentration (IC50) was > 1000 nM.

Regarding `Cc1nc(N[C@@H]2CCCc3ccccc32)cc(-c2ccccc2Cl)n1`, the 50% inhibitory concentration (IC50) is > 1000 nM.

Turning to `Cc1nc(N[C@@H]2CCCc3ccccc32)cc(-c2ccc3c(c2)NCC3)n1`, the 50% inhibitory concentration (IC50) is > 1000 nM.

Consider `COC(=O)c1cc(-c2cc(N[C@@H]3CCCc4ccccc43)nc(C)n2)ccc1Cl`, for which the IC50 was 500 nM.

For `COc1cccc(-c2cc(NC(CC(=O)NCCCN(C)C)c3cccc(OC)c3)nc(C)n2)c1` (stereo not given), the IC50 was > 1000 nM.

As for `CNC(=O)CNc1cc(-c2cc(N[C@@H]3CCCc4ccccc43)nc(C)n2)ccc1Cl`, the half-inhibitory concentration (IC50) is > 1000 nM.

In the case of `COc1ccc(F)c(CNc2cc(-c3ccc4ncsc4c3)nc(C)n2)c1Cl`, the half-maximal inhibitory concentration (IC50) is > 1000 nM.

On to `COC(=O)CN(C(=O)OC(C)(C)C)S(=O)(=O)c1cccc(C(C)Nc2cc(-c3cccc(OC)c3)nc(C)n2)c1` (stereo not given), for which the concentration for half-maximal inhibition (IC50) is > 1000 nM.

On to `Cc1nc(N[C@@H](C)c2cccc(-c3ccccc3)c2)cc(-c2ccc3ncsc3c2)n1`, for which the IC50 is > 1000 nM.

As to `CCn1cnc2ccc(-c3cc(N[C@@H]4CCCc5ccccc54)nc(C)n3)cc21`, the IC50 was > 1000 nM.

Turning to `COc1cccc(C(CCC#N)Nc2cc(-c3ccc4ncsc4c3)nc(C)n2)c1` (stereo not given), the IC50 is > 1000 nM.

`Cc1nc(NC(C)c2cccc(Br)c2)cc(-c2ccc3ncsc3c2)n1` (stereo not given): the IC50 is 500 nM.

Turning to `Cc1nc(N[C@@H]2CCCc3ccccc32)cc(-c2ccc(N)cc2)n1`, the 50% inhibitory concentration (IC50) was > 1000 nM.

Take `COc1cccc([C@H](C)Nc2cc(-c3cccc4cc[nH]c34)nc(C)n2)c1`: the half-inhibitory concentration (IC50) is > 1000 nM.

In the case of `COc1cccc([C@H](C)Nc2cc(-c3ccc4[nH]ncc4c3)nc(C)n2)c1`, the half-maximal inhibitory concentration (IC50) was > 1000 nM.

For the compound `Cc1nc(N[C@@H]2CCCc3ccccc32)cc(-c2ccc3c(c2)NCCO3)n1`, the 50% inhibitory concentration (IC50) worked out at 500 nM.

`Cc1nc(NC(C)c2cccc(OCCCN(C)C)c2)cc(-c2ccc3ncsc3c2)n1` (stereo not given): the IC50 was 500 nM.

On to `COc1cccc(-c2cc(N[C@H]3CCCc4ccccc43)nc(C)n2)c1`, for which the IC50 was > 1000 nM.

Turning to `Cc1nc(NC(C)c2cccc(OCc3ccn(C)n3)c2)cc(-c2ccc3occc3c2)n1` (stereo not given), the IC50 stood at 500 nM.

`Cc1nc(N[C@@H](C)c2cccc(-c3ccccc3)c2)cc(-c2ccc3occ(C)c3c2)n1`: the IC50 worked out at 500 nM.

On to `Cc1nc(N[C@@H]2CCCc3ccccc32)cc(-c2ccc3c(c2)OC(F)(F)O3)n1`, for which the 50% inhibitory concentration (IC50) is > 1000 nM.

Regarding `Cc1nc(NCCC2=CCCCC2)cc(-c2ccc3ncsc3c2)n1`, the IC50 came to 500 nM.

Take `Cc1nc(NC(C)c2cccc(OCC(O)CF)c2)cc(-c2ccc3ncsc3c2)n1` (stereo not given): the half-inhibitory concentration (IC50) amounted to 500 nM.

As for `COc1cccc(-c2cc(Nc3cccc4ccccc34)nc(C)n2)c1`, the 50% inhibitory concentration (IC50) was > 1000 nM.

With `Cc1nc(N[C@H]2CCCc3ccccc32)cc(-c2ccc3ncsc3c2)n1`, the half-inhibitory concentration (IC50) was found to be 500 nM.

On to `COc1cccc([C@H](C)Nc2cc(-c3ccccc3C)nc(C)n2)c1`, for which the IC50 was > 1000 nM.

In the case of `Cc1nc(N[C@@H]2CCCc3ccccc32)cc(-c2ccc3c(c2)N(CCO)CCO3)n1`, the IC50 is > 1000 nM.

Take `Cc1nc(N[C@@H]2CCCc3ccccc32)cc(-c2ccc3cn[nH]c3c2)n1`: the IC50 was > 1000 nM.

Consider `Cc1nc(N[C@@H]2CCCc3ccccc32)cc(-c2ccc3occ(CC(=O)NCCO)c3c2)n1`, for which the concentration for half-maximal inhibition (IC50) is > 1000 nM.

As to `COc1cccc([C@H](C)Nc2cc(-c3ccccc3Cl)nc(C)n2)c1`, the IC50 was > 1000 nM.

`Cc1nc(N[C@@H](C)C(C)(C)C)cc(-c2ccc3ncsc3c2)n1`: the concentration for half-maximal inhibition (IC50) is > 1000 nM.
